Experimental data as given in patent publication US3932459A, “Novel cyclopropanecarboxylic acid esters” (Sumitomo Chemical Company, Limited, priority 1973, dated 1976).
Values after ≈ are worked out from the molar mass of the structure shown.

What was measured:
insects = settings: J. Farkas et al., Chem. Listy 52, 688, 1958; cited from earlier work
[1] = tested on: green rice leafhoppers (Nephotettix cincpriceps); assay: Knock-down of green rice leafhoppers on treated rice seedlings (Experiment 3); assay type: in vivo; settings: 400-fold aqueous diluted solution of 20% emulsifiable concentrate
Description: Each of the present compounds (1) to (7), and the corresponding chrysanthemic acid esters were individually formulated into a 20% emulsifiable concentrate by usual methods.
About 20 rice seedlings were grown up to a 3- to 4-leave stage in a flower pot of 10 cm in diameter, and the 400-fold aqueous diluted solution of each emulsifiable concentrate was applied thereto by means of a turn table.
After air-drying, each pot was placed in a 5 liter glass beaker and covered with gauze at the top. Then, 20 green rice leafhoppers (Nephotettix cincpriceps) were liberated therein and the number of knocked down insects were counted at definite time intervals.

[2] = tested on: fourth instar larvae of diamond-back moth (Plutella maculipennis); assay: Emulsifiable concentrate sprayed on chinese cabbage leaves, diamond-back moth larvae (Experiment 2); assay type: in vivo; settings: for LC50: Plutella, 48 h, 20% emulsifiable concentrate diluted with water, after 2 days, read-out: LC50 (50% lethal concentration); for Relative efficacy: corresponding chrysanthemic acid ester (control) = 1.0
Description: Each of the present compounds (1), (2) and (5), and the corresponding chrysanthemic acid esters were individually formulated into a 20% emulsifiable concentrate by usual methods.
10 ml of each of the emulsifiable concentrates which had been diluted with water to the required concentration were sprayed on to four leaves of chinese cabbage grown up to a 3- to 4-leave stage. Then the leaves were placed in a glass Petri dish of 14 cm in diameter and 7 cm high, and 10 fourth instar larvae of diamond-back moth (Plutella maculipennis) were liberated therein. After 2 days, the dead and alive were counted.

[3] = tested on: house-fly adults (Musca domestica); assay: Oil spray, Campbel's turn table apparatus, house-fly adults (Experiment 1); assay type: in vivo; settings: for LC50: Musca domestica, read-out: LC50 (50% lethal concentration); for Relative efficacy: corresponding dl-trans-chrysanthemic acid ester (control) = 1.0
Description: The dl-trans isomer of each of the present compounds (1), (2), (4) and (7), and the corresponding dl-trans-chrysanthemic acid esters were individually dissolved in deodorized kerosene to prepare oil sprays of required concentration.
5 ml of each of the oil sprays were sprayed, using Campbel's turn table apparatus ("Soap and Sanitary Chemicals," Vol. 14, No. 6, 119, 1938). Twenty seconds after spraying, the shutter was opened, and about 100 house-fly adults (Musca domestica) per group were exposed to the descending mist for 10 minutes and then transferred to the observation cage. In the cage, the flies were fed and allowed to stand for one day at room temperature.
Thereafter, the number of killed flies was counted to calculate the mortality thereof.

Molecule	KT50 (a time required for 50% knock-down) [1] [min]	LC50 ([3]; 24 h) [µg/mL]	Relative efficacy [3]	further results
C=CCC1=C(C)C(OC(=O)C2C(C=C(Cl)Cl)C2(C)C)CC1=O (stereo not shown) [allethronyl ester of the acid]				insecticidal activity (insects): close to that of chrysanthemic acid ester
CC(C)=CC1C(C(=O)OCc2ccc(Oc3ccccc3)s2)C1(C)C (stereo not shown)	45			LC50 [2]: 97 µg/mL (≈ 272 µM); Relative efficacy [2]: 1.0
CC(C)=C[C@@H]1[C@@H](C(=O)OCc2cc3c(s2)CCCC3)C1(C)C (relative stereo)		834 (≈ 2620 µM)	1.0	
C#CCc1ccc(COC(=O)C2C(C=C(C)C)C2(C)C)s1 (stereo not shown)	38			
CC1(C)[C@H](C=C(Cl)Cl)[C@H]1C(=O)OCc1ccc(Cc2ccccc2)s1 (relative stereo) [dl-Trans isomer of present compound (1), 5-benzyl-2-thenyl 2',2'-dimethyl-3'-(2",2"-dichlorovinyl)-cyclopropanecarboxylate]		90 (≈ 228 µM)	4.3	
CC1(C)C(C=C(Cl)Cl)C1C(=O)OCc1cc2c(s1)CCC2 (stereo not shown) [Present compound (5), 4,5-Trimethylene-2-thenyl 2',2'-dimethyl-3'-(2",2"-dichlorovinyl)-cyclopropanecarboxylate]	21			LC50 [2]: 47 µg/mL (≈ 136 µM); Relative efficacy [2]: 2.4
CC1(C)[C@H](C=C(Cl)Cl)[C@H]1C(=O)OCc1cc2c(s1)CCCC2 (relative stereo) [dl-Trans isomer of present compound (4), 4-5-Tetramethylene-2-thenyl 2',2'-dimethyl-3'-(2",2"-dichlorovinyl)-cyclopropanecarboxylate]		217 (≈ 604 µM)	3.8	
C=CCc1ccc(COC(=O)C2C(C=C(C)C)C2(C)C)s1 (stereo not shown)	40			
Pyrethrin				LC50 (50% lethal concentration) ([3]; house fly, in vivo, 24 h): 216 mg/100 ml
CC(C)=CC1C(C(=O)OCc2csc(Cc3ccccc3)c2)C1(C)C (stereo not shown)	53			
CC1(C)C(C=C(Cl)Cl)C1C(=O)OCc1ccc(C2C=CCC2)s1 (stereo not shown) [Present compound (8), 5-(2'-cyclopentene-1'-yl)-2-thenyl 2",2"-dimethyl-3"-(2"',2"'-dichlorovinyl)-cyclopropanecarboxylate]	19			
CC(C)=CC1C(C(=O)OCc2ccc(C3C=CCC3)s2)C1(C)C (stereo not shown)	40			
CC(C)=C[C@@H]1[C@@H](C(=O)OCc2ccc(Cc3ccccc3)s2)C1(C)C (relative stereo)		386 (≈ 1090 µM)	1.0	
CC(C)=CC1C(C(=O)OCc2ccc(Cc3ccccc3)s2)C1(C)C (stereo not shown)	37			LC50 [2]: 85 µg/mL (≈ 240 µM); Relative efficacy [2]: 1.0
CC1(C)C(C=C(Cl)Cl)C1C(=O)OCc1csc(Cc2ccccc2)c1 (stereo not shown) [Present compound (3), 5-Benzyl-3-thenyl 2',2'-dimethyl-3'-(2",2"-dichlorovinyl)-cyclopropanecarboxylate]	30			
CC1(C)C(C=C(Cl)Cl)C1C(=O)OCc1cc2c(s1)CCCC2 (stereo not shown) [Present compound (4), 4-5-Tetramethylene-2-thenyl 2',2'-dimethyl-3'-(2",2"-dichlorovinyl)-cyclopropanecarboxylate]	24			
CC(C)=CC1C(C(=O)OCc2cc3c(s2)CCC3)C1(C)C (stereo not shown)	43			LC50 [2]: 114 µg/mL (≈ 374 µM); Relative efficacy [2]: 1.0
CC1(C)C(C=C(Cl)Cl)C1C(=O)OCc1ccc(Oc2ccccc2)s1 (stereo not shown) [Present compound (2), 5-Phenoxy-2-thenyl 2',2'-dimethyl-3'-(2",2"-dichlorovinyl)-cyclopropanecarboxylate]	28			LC50 [2]: 37 µg/mL (≈ 93.1 µM); Relative efficacy [2]: 2.6
CC1(C)[C@H](C=C(Cl)Cl)[C@H]1C(=O)OCc1ccc(Oc2ccccc2)s1 (relative stereo) [dl-Trans isomer of present compound (2), 5-Phenoxy-2-thenyl 2',2'-dimethyl-3'-(2",2"-dichlorovinyl)-cyclopropanecarboxylate]		135 (≈ 340 µM)	4.0	
C=CCc1ccc(COC(=O)C2C(C=C(Cl)Cl)C2(C)C)s1 (stereo not shown) [Present compound (6), 5-Allyl-2-thenyl 2',2'-dimethyl-3'-(2",2"-dichlorovinyl)-cyclopropanecarboxylate]	19			
CC(C)=CC1C(C(=O)OCc2cc3c(s2)CCCC3)C1(C)C (stereo not shown)	46			
C#CCc1ccc(COC(=O)[C@@H]2[C@@H](C=C(Cl)Cl)C2(C)C)s1 (relative stereo) [dl-Trans isomer of present compound (7), 5-Propargyl-2-thenyl 2',2'-dimethyl-3'-(2",2"-dichlorovinyl)-cyclopropanecarboxylate]		205 (≈ 597 µM)	4.2	
CC(C)=C[C@@H]1[C@@H](C(=O)OCc2ccc(Oc3ccccc3)s2)C1(C)C (relative stereo)		540 (≈ 1510 µM)	1.0	
C#CCc1ccc(COC(=O)C2C(C=C(Cl)Cl)C2(C)C)s1 (stereo not shown) [Present compound (7), 5-Propargyl-2-thenyl 2',2'-dimethyl-3'-(2",2"-dichlorovinyl)-cyclopropanecarboxylate]	15			
CC1(C)C(C=C(Cl)Cl)C1C(=O)OCc1ccc(Cc2ccccc2)s1 (stereo not shown) [Present compound (1), 5-benzyl-2-thenyl 2',2'-dimethyl-3'-(2",2"-dichlorovinyl)-cyclopropanecarboxylate]	17			LC50 [2]: 28 µg/mL (≈ 70.8 µM); Relative efficacy [2]: 3.0
C#CCc1ccc(COC(=O)[C@@H]2[C@@H](C=C(C)C)C2(C)C)s1 (relative stereo)		858 (≈ 2840 µM)	1.0	
